Legend:
L5178Y cells = settings: in words; literature; suggested due to metabolic conversion to bredinin; cited from earlier work
[1] = in words; literature; cited from earlier work
Sarcoma 180 = assay: Antitumor effect on mouse experimental tumor Sarcoma 180 (solid); assay type: in vivo, mouse (ICR-JCL male mice); settings: Sarcoma-180, ip, 240 h; for inhibition in vivo at 100 mg/kg: 100 mg/kg i.p.
Method: ICR-JCL male mice, 5 weeks old, weighing between 23 and 26 grams were used. Each test group was composed of 5 mice. One million cells of Sarcoma 180 were injected intramusculary in hind leg. The drug was administered intrapenitoneally at day 1, 3, 5, 7 and 9. After killing the mice at day 10, tumors were removed and weighed. The tumor inhibitory ratio was calculated according to the following formula. [formula]

[2] = tested on: plaque forming cell (PFC); assay: Immunosuppressive activity: plaque forming cell (PFC) number by Cunningham method in mice injected with sheep red blood cells; assay type: in vivo; settings: days 0 to 3, measured day 4
Method: The immunosuppressive activities of the compounds of the present invention, Azathioprine and 6-mercaptopurine are given in the following table. After a sheep red blood cell preparation (SRBC) was injected in mice, the compounds were administered orally once a day on days 0 to 3. The plaque forming cell (PFC) number was measured on day 4 by Cunningham method. [Cunningham A. J. et al. Immunol. 14, 599 (1968)]

mouse leukemia P388 = assay: Antitumor effect on mouse experimental tumor P388 leukemia; assay type: in vivo, CDF1 mouse; settings: day 1 & 5
From the text: The antitumor activities of the compounds of the present invention were estimated according to the methods described in "Oyo-Yakuri," Vol. 14, P. 521 (in Japanese).
animals: CDF1 mouse (6 mice/group)
tumor: mouse leukemia P388
inoculum size: 10^6 cells/mouse
day of administration: day 1 & 5
administration route: i.p.
evaluation: median survival time

lymphatic leukemia L1210 = settings: in words; literature; cited from earlier work
[3] = day 1, 3, 5, 7 and 9, tumor weight day 10, read-out: Inhibition Ratio (%) Sarcoma 180 (solid)
[4] = read-out: Inhibition Ratio (%) Sarcoma 180 (solid)

NC(=O)c1nc[nH]c1O [4-carbamoylimidazolium-5-olate]
growth inhibitory effects on L5178Y cells (L5178Y cells): growth inhibitory effects | immunosuppressive activity / effects [1]: immunosuppressive effects

N#Cc1cccc(C(=O)Oc2nc[nH]c2C(N)=O)c1 [5-Carbamoyl-1H-imidazol-4-yl m-cyanobenzoate]
inhibition in vivo at 100 mg/kg (Sarcoma 180; [3]): 38.3%

NC(=O)c1[nH]cnc1OC(=O)c1ccc(F)cc1 [5-Carbamoyl-1H-imidazol-4-yl p-fluorobenzoate]
inhibition in vivo at 100 mg/kg (Sarcoma 180; [3]): 36%

Cc1ccc(C(=O)Oc2nc[nH]c2C(N)=O)cc1 [5-Carbamoyl-1H-imidazol-4-yl p-methylbenzoate]
inhibition in vivo at 100 mg/kg (Sarcoma 180; [3]): 38.3%

NC(=O)c1[nH]cnc1OC(=O)c1ccc([N+](=O)[O-])cc1 [5-Carbamoyl-1H-imidazol-4-yl p-nitrobenzoate]
inhibition in vivo at 100 mg/kg (Sarcoma 180; [3]): 44.7%

NC(=O)c1[nH]cnc1OC(=O)c1ccccc1 [5-Carbamoyl-1H-imidazole-4-yl benzoate, 5-carbamoyl-1H-imidazol-4-yl benzoate]
Effects PFC/spleen × 10^-4 ([2]; 25 mg/kg/day p.o.): 19.88 ± 6.06 PFC/spleen × 10^-4 | Suppression (%) ([2]; 25 mg/kg/day p.o.): 68.1% | Effects PFC/spleen × 10^-4 ([2]; 100 mg/kg/day p.o.): 8.63 ± 2.61 PFC/spleen × 10^-4 | Suppression (%) ([2]; 100 mg/kg/day p.o.): 89.4%

O=c1[nH]cc(F)c(=O)[nH]1 [5-Fluorouracil, reference compound]
inhibition in vivo at 30 mg/kg (Sarcoma 180; [4]): 66%

NC(=O)c1[nH]cnc1OC(=O)C12CC3CC(CC(C3)C1)C2 [5-carbamoyl-1H-imidazol-4-yl 1-adamantanecarboxylate]
inhibition in vivo at 50 mg/kg (Sarcoma 180; 50 mg/kg i.p., day 1, 3, 5, 7 and 9, tumor weight day 10, read-out: Inhibition Ratio (%) Sarcoma 180 (solid)): 53.9% | inhibition in vivo at 100 mg/kg (Sarcoma 180; [3]): 71.4% | inhibition in vivo at 200 mg/kg (Sarcoma 180; 200 mg/kg i.p., day 1, 3, 5, 7 and 9, tumor weight day 10, read-out: Inhibition Ratio (%) Sarcoma 180 (solid)): 88.8% | inhibition in vivo at 206 mg/kg (Sarcoma 180; 206 mg/kg i.p., day 1, 3, 5, 7 and 9, tumor weight day 10, read-out: Inhibition Ratio (%) Sarcoma 180 (solid)): 100% | Evaluation T/C (%) P388 (median survival time) (mouse leukemia P388; 100 mg/kg i.p.): 112% | Evaluation T/C (%) P388 (median survival time) (mouse leukemia P388; 200 mg/kg i.p.): 120% | Evaluation T/C (%) P388 (median survival time) (mouse leukemia P388; 400 mg/kg i.p.): 138% | Effects PFC/spleen × 10^-4 ([2]; 25 mg/kg/day p.o.): 14.19 ± 2.24 PFC/spleen × 10^-4 | Suppression (%) ([2]; 25 mg/kg/day p.o.): 77.2% | Effects PFC/spleen × 10^-4 ([2]; 100 mg/kg/day p.o.): 5.19 ± 1.29 PFC/spleen × 10^-4 | Suppression (%) ([2]; 100 mg/kg/day p.o.): 93.6%

NC(=O)c1[nH]cnc1OC(=O)c1ccc2c(c1)OCO2 [5-carbamoyl-1H-imidazol-4-yl 3,4-methylenedioxybenzoate]
inhibition in vivo at 100 mg/kg (Sarcoma 180; [3]): 65.1%

NC(=O)c1[nH]cnc1OC(=O)c1ccc(Br)cc1 [5-carbamoyl-1H-imidazol-4-yl p-bromobenzoate]
inhibition in vivo at 100 mg/kg (Sarcoma 180; [3]): 66%

NC(=O)c1[nH]cnc1OC(=O)c1ccc(Cl)cc1 [5-carbamoyl-1H-imidazol-4-yl p-chlorobenzoate]
inhibition in vivo at 100 mg/kg (Sarcoma 180; [3]): 49.1% | Effects PFC/spleen × 10^-4 ([2]; 25 mg/kg/day p.o.): 22.06 ± 5.37 PFC/spleen × 10^-4 | Suppression (%) ([2]; 25 mg/kg/day p.o.): 64.6%

Sc1ncnc2nc[nH]c12 [6-Mercaptopurine, 6-mercaptopurine, reference compound]
Effects PFC/spleen × 10^-4 ([2]; 25 mg/kg/day p.o.): 30.78 ± 6.28 PFC/spleen × 10^-4 | Suppression (%) ([2]; 25 mg/kg/day p.o.): 60.2%

Cn1cnc([N+](=O)[O-])c1Sc1ncnc2nc[nH]c12 [Azathioprine, 6-(1-methyl-4-nitro-5-imidazolyl)mercaptopurine, reference compound]
Effects PFC/spleen × 10^-4 ([2]; 100 mg/kg/day p.o.): 26.73 PFC/spleen × 10^-4 | Suppression (%) ([2]; 100 mg/kg/day p.o.): 81.6%

CO[C@@]12[C@H](COC(N)=O)C3=C(C(=O)C(C)=C(N)C3=O)N1C[C@@H]1N[C@@H]12 [Mitomycin C, reference compound]
inhibition in vivo at 2 mg/kg (Sarcoma 180; [4]): 74%

NC(=O)c1ncn([C@@H]2O[C@H](CO)[C@@H](O)[C@H]2O)c1O [bredinin, 4-carbamoyl-1-β-D-ribofuranosylimidazolium-5-olate]
immunosuppressive activity / effects [1]: has immunosuppressive activity | antitumor activity against lymphatic leukemia L1210 (lymphatic leukemia L1210): weak antitumor activity
